The numbers were not newly measured in EP3111929B1, “ORAL DISINTEGRATING FILM FORMULATION CONTAINING TADALAFIL AND PREPARATION METHOD THEREFOR” (Wooshin Labottach Co., Ltd., priority 2014, dated 2015), which cites them from elsewhere.

The test system of one series is PDE5/PDE6. As to conditions: compared with sildenafil; background statement.
The conditions of series [1]: water; background statement.

`CN1CC(=O)N2[C@H](c3ccc4c(c3)OCO4)c3[nH]c4ccccc4c3C[C@@H]2C1=O` [tadalafil, (6R, 12aR)-6-(1,3-benzodioxol-5-yl)-2,3,6,7,12,12a-hexahydro-2-methyl-pyrazino[1',2':1,6]p yrido[3,4-b]indole-1,4-dion]: in the series with PDE5/PDE6, the “selectivity of PDE5/PDE6” value is listed as “better than sildenafil”. For the same compound, the solubility entry in series [1] is given as “actually water-insoluble”.
